Data reported in PubChem BioAssay AID2060500 (Molecular Pharmacology Branch, DTP, NCI, 2025).

Test system: 596521-263-R-J1-PDC complex spheroids, viability % of control
Test: Anticancer human tumor 596521-263-R-J1-PDC patient-derived soft tissue sarcoma cell line growth inhibition [GQUAD]
Conditions: for IC50: curve of first compound; for viability, T/C: stronger effect = lower value
In short: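 Tumor cells were grown as complex spheroids with HUVEC endothelial cells and mesenchymal stem cells as stroma. G-quadruplex stabilizers were combined with targeted agents over half-log dilutions from near the clinical Cmax, or from 10 microM.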

[1] = second compound 0.0316 µM, first compound 0.0316 µM
[2] = second compound 0.0316 µM, first compound 0.1 µM
[3] = second compound 0.0316 µM, first compound 0.316 µM
[4] = second compound 0.0316 µM, first compound 1 µM
[5] = second compound 0.0316 µM, first compound 3.16 µM
[6] = second compound 0.0316 µM, first compound 10 µM
[7] = second compound 0.1 µM, first compound 0.0316 µM
[8] = second compound 0.1 µM, first compound 0.1 µM
[9] = second compound 0.1 µM, first compound 0.316 µM
[10] = second compound 0.1 µM, first compound 1 µM
[11] = second compound 0.1 µM, first compound 3.16 µM
[12] = second compound 0.1 µM, first compound 10 µM
[13] = second compound 0.316 µM, first compound 0.0316 µM
[14] = second compound 0.316 µM, first compound 0.1 µM
[15] = second compound 0.316 µM, first compound 0.316 µM
[16] = second compound 0.316 µM, first compound 1 µM
[17] = second compound 0.316 µM, first compound 3.16 µM
[18] = second compound 0.316 µM, first compound 10 µM
[19] = second compound 1 µM, first compound 0.0316 µM
[20] = second compound 1 µM, first compound 0.1 µM
[21] = second compound 1 µM, first compound 0.316 µM
[22] = second compound 1 µM, first compound 1 µM
[23] = second compound 1 µM, first compound 3.16 µM
[24] = second compound 1 µM, first compound 10 µM
[25] = second compound 3.16 µM, first compound 0.0316 µM
[26] = second compound 3.16 µM, first compound 0.1 µM
[27] = second compound 3.16 µM, first compound 0.316 µM
[28] = second compound 3.16 µM, first compound 1 µM
[29] = second compound 3.16 µM, first compound 3.16 µM
[30] = second compound 3.16 µM, first compound 10 µM
[31] = second compound 10 µM, first compound 0.0316 µM
[32] = second compound 10 µM, first compound 0.1 µM
[33] = second compound 10 µM, first compound 0.316 µM
[34] = second compound 10 µM, first compound 1 µM
[35] = second compound 10 µM, first compound 3.16 µM
[36] = second compound 10 µM, first compound 10 µM
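Also: spheroids exposed to drugs for 7 days before viability reading.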
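For viability, T/C in this document: 100% = DMSO vehicle control viability.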

Work on CC(C)n1c(=O)n(C)c2cnc3cc(F)c(-c4ccc(OCCCN5CCCCC5)nc4)cc3c21 + Cc1[nH]c2ccc(F)cc2c1-c1nc2c3cccnc3c3ncccc3c2[nH]1 yielded an IC50 (second compound 0.0316 µM) of over 10000 nM, an IC50 (second compound 0.1 µM) of over 10000 nM and an IC50 (second compound 0.316 µM) of over 10000 nM. It also gave an IC50 (second compound 1 µM) of over 10000 nM, an IC50 (second compound 3.16 µM) of over 10000 nM and an IC50 (second compound 10 µM) of over 10000 nM. For the same compound, the viability, T/C [1] was 100%, the viability, T/C [2] was 82.2% and the viability, T/C [3] was 81.5%. It also gave a viability, T/C [4] of 87.1%, a viability, T/C [5] of 80% and a viability, T/C [6] of 73.4%. The viability, T/C [7] was 95%, the viability, T/C [8] was 112% and the viability, T/C [9] was 91%. For the same compound, the viability, T/C [10] was 93.9%, the viability, T/C [11] was 86% and the viability, T/C [12] was 64.9%. For the same compound, the viability, T/C [13] was 106%, the viability, T/C [14] was 102% and the viability, T/C [15] was 91.4%. The viability, T/C [16] was 83.7%, the viability, T/C [17] was 81.9% and the viability, T/C [18] was 57.6%. For the same compound, the viability, T/C [19] was 85%, the viability, T/C [20] was 89% and the viability, T/C [21] was 97%. It also gave a viability, T/C [22] of 89.4%, a viability, T/C [23] of 86.8% and a viability, T/C [24] of 72.1%. The viability, T/C [25] was 87.9%, the viability, T/C [26] was 90.3% and the viability, T/C [27] was 81.4%. It also gave a viability, T/C [28] of 76.3%, a viability, T/C [29] of 80.6% and a viability, T/C [30] of 53%. The viability, T/C [31] was 74.4%, the viability, T/C [32] was 78.6% and the viability, T/C [33] was 79.8%. The viability, T/C [34] was 79.1%, the viability, T/C [35] was 62.1% and the viability, T/C [36] was 50.7%.
For CC1COCCN1c1cc(-c2ccnn2C)c2ccnc(-c3ccn[nH]3)c2n1 (centres undefined) + Cc1[nH]c2ccc(F)cc2c1-c1nc2c3cccnc3c3ncccc3c2[nH]1, the IC50 (second compound 0.0316 µM) was 395 nM, the IC50 (second compound 0.1 µM) was 510 nM and the IC50 (second compound 0.316 µM) was 317 nM. It also gave an IC50 (second compound 1 µM) of 553 nM, an IC50 (second compound 3.16 µM) of 602 nM and an IC50 (second compound 10 µM) of 289 nM. For the same compound, the viability, T/C [1] was 84.3%, the viability, T/C [2] was 61.8% and the viability, T/C [3] was 55.6%. The viability, T/C [4] was 40.1%, the viability, T/C [5] was 32.5% and the viability, T/C [6] was 26%. For the same compound, the viability, T/C [7] was 81.3%, the viability, T/C [8] was 69.5% and the viability, T/C [9] was 52%. It also gave a viability, T/C [10] of 41.8%, a viability, T/C [11] of 37.9% and a viability, T/C [12] of 23.2%. For the same compound, the viability, T/C [13] was 75.9%, the viability, T/C [14] was 57.2% and the viability, T/C [15] was 50%. It also gave a viability, T/C [16] of 43.2%, a viability, T/C [17] of 31.8% and a viability, T/C [18] of 25.3%. For the same compound, the viability, T/C [19] was 71%, the viability, T/C [20] was 62.5% and the viability, T/C [21] was 57.1%. It also gave a viability, T/C [22] of 43.5%, a viability, T/C [23] of 34.3% and a viability, T/C [24] of 26%. The viability, T/C [25] was 67.3%, the viability, T/C [26] was 62.4% and the viability, T/C [27] was 53.2%. The viability, T/C [28] was 47.8%, the viability, T/C [29] was 36.3% and the viability, T/C [30] was 26.1%. For the same compound, the viability, T/C [31] was 64.5%, the viability, T/C [32] was 57% and the viability, T/C [33] was 49.6%. The viability, T/C [34] was 40.9%, the viability, T/C [35] was 32.9% and the viability, T/C [36] was 25.4%.
